# Assay results as given in patent publication US12128037B2 (priority 2017, dated 2024).
# Where “and” joins values, the source holds several entries; their conditions need not be identical. Equal values may be shown once. Read-outs that look alike come from different tables or passages of the source.
# Experiments:
# [1] = test system: binding of TNF-alpha to its receptor; conditions: 125I-TNF-alpha displacement; cited from earlier work
# [2] = Transport across Caco 2 cell monolayer; format: in vitro ADME; conditions: human, direction ab (apical to basal), 180 min incubation
# [3] = Solubility in water or FaSSIF-V2 medium (Example 8, HPLC)
# Description: The mobile phase consists of mobile phase (A): 1.13 g sodium dihydrogen phosphate and 2.5 g sodium acetate are dissolved in 1000 mL purified water. The pH is afterwards adjusted with acetic acid (100%) to 4.8. and mobile phase (B): 1 part mobile phase A is mixed with 4 parts of methanol for chromatography. The flow rate was 1.0 mL/min, injection volume 5 μL and detection wavelengths 320 nm (HP DAD series 1100). Run time is 10 min. Quantitation was performed using external standard methodology. The assay method has been validated with respect to selectivity, repeatability and linearity. Samples are prepared with dilute ammonia R3 PhEur.
# The saturated solutions were filtrated using centrifuge filters (Nylon, […]) and the clear supernatants were respectively injected either directly or after dilution with dilute ammonia R3 PhEur.
# [4] = Solubility in de-ionized water (HPLC); conditions: 24 °C, thermodynamic from solid
# Description: The flow rate was 1.0 mL/min, injection volume 5 μL and detection wavelengths 358 nm (for assay) and 260 nm (for chromatographic purity). Quantitation was performed using external standard methodology. The assay method has been validated with respect to selectivity, repeatability and linearity.
# [5] = Pharmacokinetics of sulfasalazine in rat, oral administration; format: in vivo, male Wistar (Hannover) rats; conditions: 60 mg/kg
# Description: (§1) In accordance with Swedish legislations for preclinical in vivo studies in rodents and following evaluation and approval of the experimental procedures the local ethical committee (M388-12), following acclimatization to the housing conditions for a minimum of 7 days after arrival, male Wistar (Hannover) rats (Taconic, Denmark), average weight 180-200 g; average age 8-10 weeks, were treated with test items (see Table 2); 12-16 h prior to dosing all food except for an amount equivalent to a half day consumption was removed. The test items were administrated using a soft gavage tube (p.o.) or by injecting the test item in the tail vein (i.v). The volume given was 10 mL/kg (p.o.) or 1 mL/kg (i.v.). Before i.v administration the rats were anesthetized using isoflurane. The rats were conscious during sample collection and the blood was taken from the sub-lingual vein. Blood samples were collected from each rat over a period of up to 24 h. At each time point two aliquots of 50 μL each was added to a vial containing 150 μL of sterile water. The samples were mixed immediately and stored in −18° C. until preparation for bioanalysis commenced. All formulations were prepared on the same day that dosing took place. The body weight of the rat was recorded before dosing. The weight of the syringe was recorded before and after administration to allow calculation of the actual amount of test sample delivered. The actual doses were used during the evaluation of the data.
# (§2) The plasma levels of sulfasalazine were determined using LCMS/MS in mrm (multiple reaction monitoring) mode.
# (§3) Samples and standards were injected by a HTC PAL from CTC analytics into an LC system from Shimadzu consisting of a high pressure gradient system of two LC-10 AD pumps controlled by a SCL-10A controller from Shimadzu. The samples were separated using reverse-phase chromatography with gradient elution at a flow rate of 0.8 mL/min. Mobile phases were A:94.9/5/0.1 water/acetonitrile/formic acid and B:[…] water/acetonitrile/formic acid. Gradient started at 0% B and increased linearly to 100% B in 4 minutes, 100% B was kept for 0.5 minutes and then the system returned to 0% B in 0.1 minutes. The system was equilibrated for 1.4 minutes until the total run time of 6 minutes. The eluent was analyzed by a Quattro Ultima from Micromass equipped with an electrospray ion source. Data was collected and calibrations were calculated by MassLynx 4.0 software. […] The eluent was ionized by negative ion electrospray and the mrm transition from 397 to 197 m/z was monitored.
# The diluted blood sample (50 μL blood, 150 μL water) was thawed and mixed. 400 μL of Acetonitrile, to precipitate the protein was added and mixed again. The sample was centrifuged at 5,000 g for 5 minutes. 100 μL of the supernatant was transferred to a 300 μL glass vial and 100 μL of water was added to reduce the acetonitrile concentration.
# Positive and negative mode MS/MS was employed for sulfasalazine. The concentration of the standard curve was in the range from 5 nM to 15625 nM. Samples with analyte concentrations above the upper limit of quantification were diluted with matrix to reach within the assay range. A non-compartmental analysis (NCA) was performed using the Phoenix WinNonLin analysis tool.
# [6] = cited from earlier work
# [7] = cited from earlier work; remark: listed apart in the source
# [8] = Gravimetric vapour sorption (GVS), hygroscopicity; format: physicochemical; conditions: 25° C.
# Description: Gravimetric vapour sorption (GVS) was used to determine the hygrocopicity of the samples: experiments were performed at 25° C. using a DVS 1 instrument from SMS Ltd to record adsorption-desorption isotherms using different methods, the main features being: a single sorption/desorption cycle from 0 to 80% RH in 10% RH steps with a dm/dt trigger value of 0.002% (dm/dt=change in mass with time—when the balance stability is within this value the next step is automatically started, however, if those conditions are not achieved there is a default maximum time for each step of 6 hours). The sample amount used was 1-3 mg.
# [9] = set-up: species or system male Wistar (Hannover) rats; conditions: rat, in vivo, iv
# Description: as §1, §2
# as §3, with “monitored. […]” for “monitored.”
# Positive and negative mode MS/MS was employed for sulfasalazine. […] Samples with analyte concentrations above the upper limit of quantification were diluted with matrix to reach within the assay range. […]
# [10] = male, Wistar (Hannover), whole blood
structure (smiles),measurement,setting,value
"O=C(O)c1cc(/N=N/c2ccc(S(=O)(=O)Nc3ccccn3)cc2)ccc1O [sulfasalazine, 2-hydroxy-5-[2-[4-[(2-pyridinylamino)sulfonyl]phenyl]diazenyl]-benzoic acid]",binding of TNF-alpha to its receptor,[1],inhibits
same,"Papp A→B at 180 min, 50 μg/mL",[2]; 50 μg/mL,1.39 ×10⁻⁶ cm/s
same,"Papp A→B at 180 min, 200 μg/mL",[2]; 200 μg/mL,1.16 ×10⁻⁶ cm/s
same,Solubility,"[3]; FaSSIF-V2, room temperature (20-25° C.), saturated solution",780 µg/mL
same,solubility at 24 h,"[3]; water, pH 5.9, water, thermodynamic from solid",60 µg/mL
same,Solubility,[4],60 µg/mL
same,F,"[5]; male, Wistar (Hannover), in vivo",2.5%
same,Cmax,[5]; [10],700 ± 110 nM
same,Tmax,[5]; [10],0.72 ± 0.57 h
same,AUC,"[5]; male, Wistar (Hannover), whole blood, p.o., read-out: AUC0.1, 5 h obs",0.81 ± 0.13 µM·h
same,AUC,"[5]; male, Wistar (Hannover), whole blood, p.o., read-out: AUCall",2.81 ± 0.41 µM·h
same,half-life,"[5]; male, Wistar (Hannover), whole blood, p.o.",2 ± 0.5 h
same,"solubility, United States Pharmacopoeia class practically insoluble",[6]; USP classification,< 100 µg/mL
same,solubility in de-ionized water,"[6]; de-ionized water at 24° C., literature value",30 µg/mL and 31 µg/mL
same,solubility in water,[6]; water,less than 5 mg/100 ml
same,half-life,[7]; intravenously administered,approximately 7.6±3.6 hours
same,time of median peak concentration,"[7]; man, oral",6 h
Nc1ccc(S(=O)(=O)Nc2ccccn2)cc1 [sulfapyridine],systemic bioavailability,[7]; metabolite formed from non-absorbed sulfasalazine by gut flora,about 60%
"CCNCC.O=C(O)c1cc(N=Nc2ccc(S(=O)(=O)Nc3ccccn3)cc2)ccc1O [Form A diethylamine salt, Diethylamine 2-hydroxy-5-[2-[4-[(2-pyridinylamino)sulfonyl]phenyl]diazenyl]-benzoate]",water vapor uptake (GVS),[8]; 30% RH,0.3 % w/w
same,water vapor uptake (GVS),[8]; 80% RH,0.5 % w/w
CNCC(O)C(O)C(O)C(O)CO.O=C(O)c1cc(N=Nc2ccc(S(=O)(=O)Nc3ccccn3)cc2)ccc1O [Form A meglumine salt],AUCinf obs,[9]; 1 mg/kg,"1,661 ± 191 h*nM"
same,T1/2,[9]; 1 mg/kg,1.2 h
same,AUCinf obs,[9]; 5 mg/kg,"11,889 ± 735 h*nM"
same,T1/2,[9]; 5 mg/kg,1.3 h
same,Solubility,[3]; pH 6.8,60300 µg/mL
same,water vapor uptake (GVS),"[8]; 30% RH, listed as Example 1",< 0.4 % w/w
same,water vapor uptake (GVS),"[8]; 30% RH, listed as Example 2",0.4 % w/w
same,water vapor uptake (GVS),"[8]; 80% RH, listed as Example 1",< 0.9 % w/w
same,water vapor uptake (GVS),"[8]; 80% RH, listed as Example 2",1.1 % w/w
same,F,[5]; in vivo,3.8%
same,T1/2,[5]; in vivo,1.9 ± 0.5 h
